Data reported in ChEMBL document CHEMBL4732126, “Design, synthesis, and biodistribution studies of new analogues of marine alkaloids: Potent in vitro and in vivo fungicidal agents against Candida spp” (Eur J Med Chem, 2021).
Active and inactive are the calls of the source. The calls are words filed in the database; no cut-off is given here.

Experiments:
[1] = Toxicity in Swiss mouse assessed as relative heart weight at 0.5 mg/kg, ip measured after 24 hrs (reference value: 4.75 +/- 0.60 g); type: organism-based; details: in vivo
[2] = Toxicity in Swiss mouse assessed as relative liver weight at 0.5 mg/kg, ip measured after 24 hrs (reference value: 49.42 +/- 7.17 g); type: organism-based; details: in vivo
[3] = test system: Candida albicans; test: Fungicidal activity against Candida albicans ATCC 10231 assessed as reduction in fungal load at 7.8 to 15.6 ug/ml incubated for 8 hrs followed by inoculation on SD agar plate for 48 hrs by time-kill assay; type: functional, organism-based; details: dose 7.8-15.6 µg/ml, time 56.0 hrs
[4] = test system: Candida albicans; test: Fungicidal activity against Candida albicans isolate 7 assessed as fungal killing incubated for 48 hrs followed by plating on SD agar plate; type: functional; details: read-out: MFC99.9
[5] = Toxicity in Swiss mouse assessed as relative liver weight at 10 mg/kg, ip measured after 24 hrs (reference value: 49.42 +/- 7.17 g); type: organism-based; details: in vivo
[6] = Toxicity in Swiss mouse assessed as relative spleen weight at 1 mg/kg, ip measured after 24 hrs (reference value: 4.02 +/- 0.59 g); type: organism-based; details: in vivo
[7] = Toxicity in Swiss mouse assessed as relative lung weight at 20 mg/kg, ip measured after 24 hrs (reference value: 6.35 +/- 0.68 g); type: organism-based; details: in vivo
[8] = test system: Candida albicans; test: Fungicidal activity against Candida albicans isolate 1 assessed as fungal killing incubated for 48 hrs followed by plating on SD agar plate; type: functional; details: read-out: MFC99.9
[9] = test system: Candida albicans; test: Fungicidal activity against Candida albicans isolate 3 assessed as fungal killing incubated for 48 hrs followed by plating on SD agar plate; type: functional; details: read-out: MFC99.9
[10] = Toxicity in Swiss mouse assessed as body weight at 10 mg/kg, ip measured after 24 hrs (reference value: 36.25 +/- 0.31 g); type: organism-based; details: in vivo
[11] = Toxicity in Swiss mouse assessed as relative kidney weight at 0.5 mg/kg, ip measured after 24 hrs (reference value: 14.91 +/- 0.99 g); type: organism-based; details: in vivo
[12] = test system: Candida albicans; test: Fungicidal activity against Candida albicans isolate 13 assessed as fungal killing incubated for 48 hrs followed by plating on SD agar plate; type: functional; details: read-out: MFC99.9
[13] = Toxicity in Swiss mouse infected with Candida albicans ATCC 10231 assessed as effect on lung weight at 10 mg/kg, ip administered at 2, 24 and 48 hrs post-infection and measured at 24 hrs after last dose; type: organism-based; details: in vivo, 72 h
[14] = test system: Nakaseomyces glabratus; test: Fungicidal activity against Candida glabrata ATCC 2001 assessed as fungal killing incubated for 48 hrs followed by plating on SD agar plate; type: functional; details: read-out: MFC99.9
[15] = test system: Candida albicans; test: Fungicidal activity against Candida albicans ATCC 18804 assessed as fungal killing incubated for 48 hrs followed by plating on SD agar plate; type: functional; details: read-out: MFC99.9
[16] = Toxicity in Swiss mouse assessed as relative kidney weight at 1 mg/kg, ip measured after 24 hrs (reference value: 14.91 +/- 0.99 g); type: organism-based; details: in vivo
[17] = test system: Candida albicans; test: Fungicidal activity against Candida albicans isolate 9 assessed as fungal killing incubated for 48 hrs followed by plating on SD agar plate; type: functional; details: read-out: MFC99.9
[18] = Toxicity in Swiss mouse assessed as ataxia at 20 mg/kg, ip measured after 30 mins; type: organism-based; details: in vivo, 0.5 h
[19] = test system: Candida albicans; test: In vivo antifungal activity in Swiss mouse infected with Candida albicans ATCC 10231 assessed as reduction in fungal load in liver at 1 mg/kg, ip administered at 2, 24 and 48 hrs post-infection and measured per gm of organ at 24 hrs post-last dose (reference value: 1.80); type: functional; details: time 72 hrs
[20] = test system: Nakaseomyces glabratus; test: Disruption of cell membrane in Candida glabrata ATCC 2001 assessed as increase in intracellular leakage at MIC incubated for 24 hrs by UV spectrophotometric analysis; type: cell-based
[21] = Toxicity in Swiss mouse assessed as relative heart weight at 3 mg/kg, ip measured after 24 hrs (reference value: 4.75 +/- 0.60 g); type: organism-based; details: in vivo
[22] = Toxicity in Swiss mouse infected with Candida albicans ATCC 10231 assessed as effect on spleen at 10 mg/kg, ip administered at 2, 24 and 48 hrs post-infection and measured at 24 hrs after last dose by macroscopic analysis; type: organism-based; details: in vivo, 72 h
[23] = Toxicity in Swiss mouse assessed as relative heart weight at 20 mg/kg, ip measured after 24 hrs (reference value: 4.75 +/- 0.60 g); type: organism-based; details: in vivo
[24] = Toxicity in Swiss mouse infected with Candida albicans ATCC 10231 assessed as effect on body weight at 0.5 to 1 mg/kg, ip administered at 2, 24 and 48 hrs post-infection and measured at 24 hrs after last dose; type: organism-based; details: in vivo, 72 h, dose 0.5-1 mg/kg
[25] = Toxicity in Swiss mouse infected with Candida albicans ATCC 10231 assessed as effect on heart at 10 mg/kg, ip administered at 2, 24 and 48 hrs post-infection and measured at 24 hrs after last dose by macroscopic analysis; type: organism-based; details: in vivo, 72 h
[26] = test system: Candida albicans; test: Antifungal activity against Candida albicans isolate 9 assessed as reduction in fungal growth incubated for 48 hrs by broth microdilution method; type: functional
[27] = Toxicity in Swiss mouse assessed as relative lung weight at 1 mg/kg, ip measured after 24 hrs (reference value: 6.35 +/- 0.68 g); type: organism-based; details: in vivo
[28] = test system: Candida albicans; test: Antifungal activity against Candida albicans isolate 5 assessed as reduction in fungal growth incubated for 48 hrs by broth microdilution method; type: functional
[29] = test system: Candida albicans; test: Fungicidal activity against Candida albicans ATCC 10231 assessed as fungal killing incubated for 48 hrs followed by plating on SD agar plate; type: functional; details: read-out: MFC99.9
[30] = Toxicity in Swiss mouse assessed as relative lung weight at 3 mg/kg, ip measured after 24 hrs (reference value: 6.35 +/- 0.68 g); type: organism-based; details: in vivo
[31] = Toxicity in Swiss mouse assessed as body weight at 3 mg/kg, ip measured after 24 hrs (reference value: 36.25 +/- 0.31 g); type: organism-based; details: in vivo
[32] = test system: Candida albicans; test: Antifungal activity against Candida albicans ATCC 10231 assessed as reduction in fungal growth incubated for 48 hrs in presence of ergosterol by broth microdilution method; type: functional
[33] = Toxicity in Swiss mouse infected with Candida albicans ATCC 10231 assessed as effect on kidney at 10 mg/kg, ip administered at 2, 24 and 48 hrs post-infection and measured at 24 hrs after last dose by macroscopic analysis; type: organism-based; details: in vivo, 72 h
[34] = test system: Candida albicans; test: Disruption of cell membrane in Candida albicans ATCC 10231 assessed as increase in number of invagination at 2 times of MIC incubated for 1 hr by SEM analysis
[35] = Toxicity in Swiss mouse assessed as relative spleen weight at 3 mg/kg, ip measured after 24 hrs (reference value: 4.02 +/- 0.59 g); type: organism-based; details: in vivo
[36] = test system: Candida albicans; test: Antifungal activity against Candida albicans isolate 12 assessed as reduction in fungal growth incubated for 48 hrs by broth microdilution method; type: functional
[37] = Toxicity in Swiss mouse infected with Candida albicans ATCC 10231 assessed as effect on heart weight at 10 mg/kg, ip administered at 2, 24 and 48 hrs post-infection and measured at 24 hrs after last dose; type: organism-based; details: in vivo, 72 h
[38] = Toxicity in Swiss mouse assessed as relative spleen weight at 20 mg/kg, ip measured after 24 hrs (reference value: 4.02 +/- 0.59 g); type: organism-based; details: in vivo

## [Cl-].[N-]=[N+]=NCCCCCCCCCCCCOCCCc1ccc[n+](Cc2ccccc2)c1
[1]
  Activity: 5.75 g
[2]
  Activity: 43.25 g
[3]
  Activity: Active
[4]
  MFC: 3.9 mg/L
[5]
  Activity: 43.58 g
[6]
  Activity: 4.29 g
[7]
  Activity: 5.38 g
[8]
  MFC: 7.8 mg/L
[9]
  MFC: 7.8 mg/L
[10]
  Activity: 31.37 g
[11]
  Activity: 14.41 g
[12]
  MFC: 7.8 mg/L
[13]
  Activity: Non-Toxic
[14]
  MFC: 7.8 mg/L
[15]
  MFC: 31.2 mg/L
[16]
  Activity: 13.58 g
[17]
  MFC: 31.2 mg/L
[18]
  Activity: Toxic
[19]
  Activity: 1.78 log10CFU
[20]
  Activity: Active
[21]
  Activity: 4.45 g
[22]
  Activity: Non-Toxic
[23]
  Activity: 4.93 g
[24]
  Activity: Non-Toxic
[25]
  Activity: Non-Toxic
[26]
  MIC: 15.6 mg/L
[27]
  Activity: 5.33 g
[28]
  MIC: 7.8 mg/L
[29]
  MFC: 7.8 mg/L
[30]
  Activity: 5.19 g
[31]
  Activity: 38.87 g
[32]
  MIC: 7.8 mg/L
[33]
  Activity: Non-Toxic
[34]
  Activity: Active
[35]
  Activity: 4.07 g
[36]
  MIC: 7.8 mg/L
[37]
  Activity: Non-Toxic
[38]
  Activity: 2.93 g
